Experimental data from US9074014B2 (Ipsen Pharma S.A.S., priority 2008, dated 2015).

Experiments:
[1] = In vivo insulin secretion in normal rats; set-up: species or system Sprague Dawley rats; conditions: fasted male rats, iv compound with glucose 1 g/kg, samples to 20 minutes
Description: D. Determination of In Vivo Insulin Secretion in Normal Rats
Male Sprague Dawley rats with a body weight of approximately 275-300 g were used as experimental subjects. The day prior to the treatment, right atrial cannulae were implanted via the jugular vein under chlorohydrate. Each cannula was filled with 100 u/ml heparin saline and tied. The rats were fasted for approximately 18 hours prior to dosing with the compound or the vehicle (saline/0.25% BSA). The day of the experiment, aliquots of compound were thawed, brought to room temperature and vortexed thoroughly. A careful check was made for any sign of compound coming out of solution. 10 minutes prior to compound/glucose injection, a 500 μl blood sample was withdrawn and replaced with an equal volume of heparinized saline (10 u/ml). At time 0, a 500 μl blood sample was withdrawn through the cannula. Next, either the vehicle or the appropriate dose of the compound was injected into the cannula and pushed in with the glucose (1 g/kg) or vehicle solution. Finally, 500 μl of volume of heparinized saline (10 u/ml) was used to push in the remaining glucose through the cannula. Additional 500 μl blood samples were withdrawn at 2.5, 5, 10, and 20-minute post-glucose dosing; each immediately followed by a bolus, iv injection of 500 μl heparinized saline (10 u/ml) through the cannula. The plasma was collected from the blood samples by centrifugation, and stored at −20° C. until assay for insulin content. Numerical values of the total insulin secretion, which show the in vivo effects of the compounds of Examples 105, 106, 118, and 119, are summarized in Table 3.

[2] = Rat plasma half-life assay; assay type: in vitro ADME; conditions: rat plasma, 37° C., LC-MS; read-out: Rat Plasma T½ (converted)
[3] = Human plasma half-life assay; assay type: in vitro ADME; conditions: human plasma, 37° C., LC-MS; read-out: Human Plasma T½ (converted)
[4] = molecular target: T1, human recombinant GIP receptor (Homo sapiens, UniProt P48546); assay: In vitro hGIP receptor binding assay ([125I]GIP displacement, CHO-K1 membranes)
T1 construct: expressed in transfected cells; host or cells: CHO-K1 clonal cells (membranes)
T1 sequence (P48546 22-466): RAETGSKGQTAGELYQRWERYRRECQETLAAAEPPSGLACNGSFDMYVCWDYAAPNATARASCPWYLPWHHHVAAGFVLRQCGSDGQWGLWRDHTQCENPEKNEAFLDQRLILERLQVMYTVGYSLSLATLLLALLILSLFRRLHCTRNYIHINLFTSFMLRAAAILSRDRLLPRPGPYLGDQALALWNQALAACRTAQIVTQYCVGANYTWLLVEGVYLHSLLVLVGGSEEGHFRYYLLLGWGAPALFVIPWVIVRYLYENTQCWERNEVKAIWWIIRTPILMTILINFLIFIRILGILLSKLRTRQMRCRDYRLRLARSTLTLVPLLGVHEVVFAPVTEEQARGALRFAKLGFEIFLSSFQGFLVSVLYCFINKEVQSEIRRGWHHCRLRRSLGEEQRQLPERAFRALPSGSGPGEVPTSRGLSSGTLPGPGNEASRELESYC
Source text: A. In Vitro hGIP Receptor Binding Assay

| Compound | AUC (total insulin secretion) [1] | half-life at 0.1 mg/ml [2] [h] | half-life at 0.1 mg/ml [3] [h] | Ki [4] [nM] |
| --- | --- | --- | --- | --- |
| CC[C@H](C)[C@H](NC(=O)[C@H](CCCCN)NC(=O)[C@H](CC(=O)O)NC(=O)[C@H](CCSC)NC(=O)[C@H](C)NC(=O)[C@@H](NC(=O)C1(NC(=O)[C@H](Cc2ccc(O)cc2)NC(=O)[C@H](CC(=O)O)NC(=O)[C@H](CO)NC(=O)[C@@H](NC(=O)[C@H](Cc2ccccc2)NC(=O)[C@@H](NC(=O)CNC(=O)[C@H](CCC(=O)O)NC(=O)[C@@H](C)NC(=O)[C@@H](N)Cc2ccc(O)cc2)[C@@H](C)O)[C@@H](C)CC)CCCC1)[C@@H](C)CC)C(=O)N[C@@H](Cc1c[nH]cn1)C(=O)N[C@@H](CCC(N)=O)C(=O)N[C@@H](CCC(N)=O)C(=O)N[C@@H](CC(=O)O)C(=O)N[C@@H](Cc1ccccc1)C(=O)N[C@H](C(=O)N[C@@H](CC(N)=O)C(=O)N[C@@H](Cc1c[nH]c2ccccc12)C(=O)N[C@@H](CC(C)C)C(=O)N[C@@H](CC(C)C)C(=O)N[C@@H](C)C(=O)N[C@@H](CCC(N)=O)C(=O)N[C@@H](CCCCN)C(=O)NCC(=O)N[C@@H](CCCCN)C(=O)N[C@@H](CCCCN)C(=O)N[C@@H](CC(N)=O)C(=O)N[C@@H](CC(=O)O)C(=O)N[C@@H](Cc1c[nH]c2ccccc12)C(=O)N[C@@H](CCCCN)C(=O)N[C@@H](Cc1c[nH]cn1)C(=O)N[C@@H](CC(N)=O)C(=O)N[C@H](C(=O)N[C@H](C(=O)N[C@@H](CCC(N)=O)C(=O)N[C@@H](Cc1c[nH]cn1)C(=O)O)[C@@H](C)O)[C@@H](C)CC)C(C)C [Example 105, (D-Ala^2, A5c^11, His^43)hGIP(1-43)-OH] | 114.70 | 6.9 | 19.1 |  |
| CCCC[C@H](NC(=O)[C@H](C)NC(=O)[C@@H](NC(=O)C1(NC(=O)[C@H](Cc2ccc(O)cc2)NC(=O)[C@H](CC(=O)O)NC(=O)[C@H](CO)NC(=O)[C@@H](NC(=O)[C@H](Cc2ccccc2)NC(=O)[C@@H](NC(=O)CNC(=O)[C@H](CCC(=O)O)NC(=O)CNC(=O)[C@@H](N)Cc2ccc(O)cc2)[C@@H](C)O)[C@@H](C)CC)CCCC1)[C@@H](C)CC)C(=O)N[C@@H](CC(=O)O)C(=O)N[C@@H](CCCCN)C(=O)N[C@H](C(=O)N[C@@H](Cc1c[nH]cn1)C(=O)N[C@@H](CCC(N)=O)C(=O)N[C@@H](CCC(N)=O)C(=O)N[C@@H](CC(=O)O)C(=O)N[C@@H](Cc1ccccc1)C(=O)N[C@H](C(=O)N[C@@H](CC(N)=O)C(=O)N[C@@H](Cc1c[nH]c2ccccc12)C(=O)N[C@@H](CC(C)C)C(=O)N[C@@H](CC(C)C)C(=O)N[C@@H](C)C(=O)N[C@@H](CCC(N)=O)C(=O)N[C@@H](CCCCN)C(=O)NCC(=O)N[C@@H](CCCCN)C(=O)N[C@@H](CCCCN)C(=O)N[C@@H](CC(N)=O)C(=O)N[C@@H](CC(=O)O)C(=O)N[C@@H](Cc1c[nH]c2ccccc12)C(=O)N[C@@H](CCCCN)C(=O)N[C@@H](Cc1c[nH]cn1)C(=O)N[C@@H](CC(N)=O)C(=O)N[C@H](C(=O)N[C@H](C(=O)N[C@@H](CCC(N)=O)C(=O)N[C@@H](Cc1c[nH]cn1)C(=O)O)[C@@H](C)O)[C@@H](C)CC)C(C)C)[C@@H](C)CC [Example 118, (Gly^2, A5c^11, Nle^14, His^43)hGIP(1-43)-OH] | 88.22 | 11.2 | > 42 | 0.87 |
